The values below come from patent publication US8853230B2, “Inhibitors of JAK” (Portola Pharmaceuticals, Inc., priority 2009, dated 2014).

Structures are written as SMILES.

The term IC50 denotes the concentration at which inhibition is half-maximal.

Common to all, as to format: biochemical
The target in one test is T1, JAK1 (Homo sapiens, UniProt P23458).
T1 construct: 5 μl of catalytic domain recombinant Kinase enzyme+Tyr peptide substrate (Invitrogen, Calif.); purchased Invitrogen
Briefly: Z'-LYTE kinase assay, JAK1 tyrosine phosphorylation activity. The settings on record: read-out: JAK 1 IC50. The method, then:
(§1) JAK and TYK2 tyrosine phosphorylation activity is measured using the Z′-LYTE™ Technology developed by Invitrogen Corporation (Carlsbad, Calif.). For JAK1, JAK2 and JAK3 the Z′-LYTE™ Kinase Assay Kit-Tyr6 Peptide (part number PV4122) was used. For TYK2 the Z′-LYTE™ Kinase Assay Kit-Tyr6 Peptide (part number PV3192) was used. The Z′-LYTE™ biochemical assay employs a fluorescence resonance energy transfer (FRET) coupled-enzyme format and is based on the differential sensitivity of phosphorylated and non-phosphorylated peptides to proteolitic cleavage. The assay uses a synthetic peptide substrate that is labelled with a donor fluorophore (coumarin) and an acceptor fluorophore (fluorescein) that make up a FRET pair. In the primary reaction (the Kinase Reaction), the kinase transfers the γ-phosphate of ATP to a single tyrosine residue on the substrate, while the presence of a kinase inhibitor in the primary reaction suppresses phosphorylation. In the secondary reaction (the Development Reaction), a site-specific protease (the Development Reagent) is added. The development buffer quenches the Kinase Reaction, while the protease recognizes and cleaves non-phosphorylated Z′-LYTE™ peptide substrate. Cleavage disrupts FRET between the donor and acceptor fluorophores on the non-phosphoryleted substrate, while uncleaved, phosphorylated substrate maintains FRET.
(§2) To test the ability of candidate molecules to inhibit JAK tyrosine phosphorylation activity, molecules are reconstituted in 100% DMSO and serially diluted 1:10 in polypropylene v-bottom microtiter plates. The candidate molecules are then diluted 1:25 into kinase buffer and 2.5 μl transferred into duplicate wells of a 384 well low volume black microtiter assay plate (Corning, USA). The final DMSO concentration in the assay is 1%. The kinase reaction contains 2.5 μl of a candidate molecule, 5 μl of catalytic domain recombinant Kinase enzyme+Tyr peptide substrate (Invitrogen, Calif.) and 2.5 μl ATP (Invitrogen, Calif.). The kinase reaction is allowed to procede for 1 hour at room temperature. The protease reaction is initiated by the addition of 5 μl Development Reagent (Invitrogen, Calif.). After 1 hour incubation at room temperature the fluorescence is measured using a FlexStation plate reader (Molecular Devices, Sunnyvale, Calif.). The reader settings used are as follows: Fluorescence mode, endpoint, top read, excitation 400 nm, emission 445 nm and 520 nm, Auto Cutoff 435 nm and 515 nm, PMT sensitivity high, 6 reads per well. Inhibition of JAK activity is calculated as the percent phosphorylation of substrate in the presence of inhibitor compared to the percent phosphorylation of substrate in the absence of inhibitor. IC50's were derived using Xlfit 4.3 (IDBS, UK), 4 parameter logistic model 205: Y=(A+((B−A)/(1+((C/x)^D)))).

Another test deals with T2, JAK2 (Homo sapiens, UniProt O60674).
T2 construct: 5 μl of catalytic domain recombinant Kinase enzyme+Tyr peptide substrate (Invitrogen, Calif.); purchased Invitrogen
T2 sequence (O60674 849-1124 limits assumed): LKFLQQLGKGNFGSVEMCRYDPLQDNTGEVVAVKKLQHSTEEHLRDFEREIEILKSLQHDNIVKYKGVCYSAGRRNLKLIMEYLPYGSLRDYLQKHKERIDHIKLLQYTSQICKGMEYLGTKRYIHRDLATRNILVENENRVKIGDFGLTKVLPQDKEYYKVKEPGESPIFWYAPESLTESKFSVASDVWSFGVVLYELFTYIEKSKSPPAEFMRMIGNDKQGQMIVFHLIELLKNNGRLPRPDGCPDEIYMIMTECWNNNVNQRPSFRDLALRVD
Briefly: Z'-LYTE kinase assay, JAK2 tyrosine phosphorylation activity. On the procedure: as §1, §2

The next test has as its target T3, TYK2 (Homo sapiens, UniProt P29597).
T3 construct: 5 μl of catalytic domain recombinant Kinase enzyme+Tyr peptide substrate (Invitrogen, Calif.); purchased Invitrogen
T3 sequence (P29597 897-1176 limits assumed): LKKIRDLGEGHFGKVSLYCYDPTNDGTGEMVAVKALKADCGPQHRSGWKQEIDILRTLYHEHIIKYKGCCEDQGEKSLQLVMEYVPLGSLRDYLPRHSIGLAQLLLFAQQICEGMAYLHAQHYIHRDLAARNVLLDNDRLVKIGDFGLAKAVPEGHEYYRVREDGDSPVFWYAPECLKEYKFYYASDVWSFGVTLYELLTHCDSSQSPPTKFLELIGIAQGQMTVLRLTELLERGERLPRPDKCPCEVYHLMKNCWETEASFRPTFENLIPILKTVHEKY
Briefly: Z'-LYTE kinase assay, TYK2 tyrosine phosphorylation activity. On the procedure: as §1, §2

The target of a further test is T4, JAK3 (Homo sapiens, UniProt P52333).
T4 construct: 5 μl of catalytic domain recombinant Kinase enzyme+Tyr peptide substrate (Invitrogen, Calif.); purchased Invitrogen
T4 sequence (P52333 822-1111 limits assumed): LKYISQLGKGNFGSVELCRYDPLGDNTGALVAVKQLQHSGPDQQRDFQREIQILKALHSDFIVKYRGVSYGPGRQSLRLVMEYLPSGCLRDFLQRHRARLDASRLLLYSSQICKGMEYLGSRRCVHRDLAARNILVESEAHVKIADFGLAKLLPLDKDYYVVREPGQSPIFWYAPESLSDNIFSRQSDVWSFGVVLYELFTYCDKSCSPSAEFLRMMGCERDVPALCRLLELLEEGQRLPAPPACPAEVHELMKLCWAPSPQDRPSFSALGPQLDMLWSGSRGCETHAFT
Briefly: Z'-LYTE kinase assay, JAK3 tyrosine phosphorylation activity. The method, then:
as §1, §2

T1 sequence (P23458 875-1153 limits assumed): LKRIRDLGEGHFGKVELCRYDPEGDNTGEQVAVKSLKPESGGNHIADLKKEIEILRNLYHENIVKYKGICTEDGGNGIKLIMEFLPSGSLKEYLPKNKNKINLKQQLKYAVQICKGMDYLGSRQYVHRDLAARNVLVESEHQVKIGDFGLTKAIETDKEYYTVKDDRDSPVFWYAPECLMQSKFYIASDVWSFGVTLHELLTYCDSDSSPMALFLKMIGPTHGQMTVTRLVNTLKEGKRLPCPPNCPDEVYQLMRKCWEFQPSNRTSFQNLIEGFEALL

`CC(=O)Nc1cc(Cl)cc(Nc2ncc(C(N)=O)c(NCc3cccc(F)c3)n2)c1` [Example 261, 2-(3-acetamido-5-chlorophenylamino)-4-(3-fluorobenzylamino)pyrimidine-5-carboxamide]: the IC50 on JAK1 was over 1 µM; against JAK2, 0.01 to 0.1 µM; on TYK2 it was 0.01 to 0.1 µM; on JAK3, 0.01 to 0.1 µM.
As for `NC(=O)c1cnc(Nc2cccc(NC(=O)N3CCC[C@@H](O)C3)c2)nc1NCc1ccccc1` [Example 212, (R)-4-(benzylamino)-2-(3-(3-hydroxypiperidine-1-carboxamido)phenylamino)pyrimidine-5-carboxamide], the IC50 at JAK2, against TYK2 and against JAK3 was 0.1 to 1 µM each time.
Turning to `NC(=O)c1cnc(Nc2ccc(F)c(NC(=O)N3CCCC3)c2)cc1NCc1cccnc1` [Example 304, 6-(4-fluoro-3-(pyrrolidine-1-carboxamido)phenylamino)-4-(pyridin-3-ylmethylamino)nicotinamide], the IC50 was over 1 µM at JAK1, over 1 µM at JAK2 and 0.01 to 0.1 µM against JAK3.
In the case of `CNC(=O)c1cnc(Nc2cccc(NC(C)=O)c2)cc1NCc1ccccc1` [Example 339, 6-(3-acetamidophenylamino)-4-(benzylamino)-N-methylnicotinamide], the 50% inhibitory concentration (IC50) on JAK1, on JAK2 and against JAK3 was over 1 µM in each case.
With `NC(=O)c1cnc(Nc2ccc(F)c(NC(=O)N3CCCC3)c2)cc1NCc1cccc(F)c1` [Example 307], the IC50 lay within 0.1 to 1 µM on JAK1, 0.1 to 1 µM at JAK2 and 0.01 to 0.1 µM at JAK3.
As to `NC(=O)c1cnc(Nc2ccc(F)c(NC(=O)N3CCC3)c2)cc1NCc1cccnc1` [Example 317, 6-(3-(azetidine-1-carboxamido)-4-fluorophenylamino)-4-(pyridin-3-ylmethylamino)nicotinamide], the results for the IC50 at JAK1, against JAK2 and on JAK3 were over 1 µM, over 1 µM and 0.01 to 0.1 µM, respectively.
On to `NC(=O)c1cnc(Nc2cccc(NC(=O)N3CCOCC3)c2)cc1NCc1cccnc1` [Example 319, N-(3-(5-carbamoyl-4-(pyridin-3-ylmethylamino)pyridin-2-ylamino)phenyl)morpholine-4-carboxamide], for which the IC50 on JAK1 was over 1 µM; at JAK2 it was 0.1 to 1 µM; on JAK3, 0.01 to 0.1 µM.
The matching figures for `NC(=O)c1cnc(Nc2ccc(F)c(NC(=O)N3CCC3)c2)cc1N[C@H](CO)c1ccccc1` [Example 311, (S)-6-(3-(azetidine-1-carboxamido)-4-fluorophenylamino)-4-(2-hydroxy-1-phenylethylamino)nicotinamide]: over 1 µM, 0.1 to 1 µM and 0.001 to 0.01 µM.
With `NC(=O)c1cnc(Nc2cccc(NC(=O)N3CCCC3)c2)cc1NCc1cc(F)cc(F)c1` [Example 341, 4-(3,5-difluorobenzylamino)-6-(3-(pyrrolidine-1-carboxamido)phenylamino)nicotinamide], the results for the IC50 on JAK1, against JAK2 and on JAK3 were over 1 µM, 0.1 to 1 µM and 0.001 to 0.01 µM, respectively.
The matching figures for `NC(=O)c1cnc(Nc2ccc(F)c(NC(=O)N3CCCC3)c2)cc1N[C@H](CO)c1ccccc1` [Example 313, (S)-6-(4-fluoro-3-(pyrrolidine-1-carboxamido)phenylamino)-4-(2-hydroxy-1-phenylethylamino)nicotinamide]: over 1 µM, over 1 µM and 0.01 to 0.1 µM.
In the same order, the values of `CN(C)[C@@H]1CCN(C(=O)Nc2cccc(Nc3cc(NCc4cccnc4)c(C(N)=O)cn3)c2)C1` [Example 318, (R)-6-(3-(3-(dimethylamino)pyrrolidine-1-carboxamido)phenylamino)-4-(pyridin-3-ylmethylamino)nicotinamide] are over 1 µM, 0.1 to 1 µM and 0.01 to 0.1 µM.
